ChEMBL document CHEMBL1201862, “PubChem BioAssay data set” (2004)
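Values below derive from 48-hour exposures of cells grown in 96-well plates, with endpoints linearly interpolated between the two concentrations bracketing the appropriate inhibition level. GI50 marks 50% less growth.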 Active and inactive are the calls of the source. No stated cut-off is given here; in the data, active = GI50 up to about 1.1 µM and inactive = higher.

What was measured:
Assay in all cases: NCI-60 cell line screen, 48 h
OVCAR-3 = system: OVCAR-3
A498 = system: A498
RPMI-8226 = system: RPMI-8226
786-0 = system: 786-0
CAKI-1 = system: CAKI-1
UO-31 = system: UO-31
NCI-H23 = system: NCI-H23
SF-268 = system: SF-268
UACC-62 = system: UACC-62
HT-29 = system: HT-29
COLO 205 = system: COLO 205
SN12C = system: SN12C
HL-60 = system: HL-60
OVCAR-4 = system: OVCAR-4
ACHN = system: ACHN
DU-145 = system: DU-145
SW-620 = system: SW-620
MDA-N = system: MDA-N
HCT-116 = system: HCT-116
MDA-MB-435 = system: MDA-MB-435
M14 = system: M14
SF-295 = system: SF-295
HCC 2998 = system: HCC 2998
EKVX = system: EKVX
Malme-3M = system: Malme-3M
SK-MEL-5 = system: SK-MEL-5
MDA-MB-231 = system: MDA-MB-231
MOLT-4 = system: MOLT-4
SK-OV-3 = system: SK-OV-3
Hs-578T = system: Hs-578T
SF-539 = system: SF-539
SR = system: SR
T47D = system: T47D
MCF7 = system: MCF7
OVCAR-5 = system: OVCAR-5
KM12 = system: KM12
LOX IMVI = system: LOX IMVI
SNB-19 = system: SNB-19
NCI-H226 = system: NCI-H226
NCI/ADR-RES = system: NCI/ADR-RES
TK-10 = system: TK-10
BT-549 = system: BT-549
SK-MEL-2 = system: SK-MEL-2
HOP-62 = system: HOP-62
HCT-15 = system: HCT-15
UACC-257 = system: UACC-257
NCI-H460 = system: NCI-H460
PC-3 = system: PC-3
SK-MEL-28 = system: SK-MEL-28
CCRF-CEM = system: CCRF-CEM
U-251 = system: U-251
A549 = system: A549
K562 = system: K562
HOP-92 = system: HOP-92
OVCAR-8 = system: OVCAR-8

With `CC(/C=C/c1ccc([N+](=O)[O-])o1)=N/N1CC(CN2CCOCC2)OC1=O` (stereo not given) the GI50 (OVCAR-3) was 16.1 µM (inactive), the GI50 (A498) was 32.6 µM (inactive) and the GI50 (RPMI-8226) was 9.64 µM (inactive). For the same molecule, the GI50 (786-0) was 28.1 µM (inactive), the GI50 (CAKI-1) was 19.4 µM (inactive) and the GI50 (UO-31) was 21.3 µM (inactive). For the same molecule, the GI50 (NCI-H23) was 20.7 µM (inactive), the GI50 (SF-268) was 17.7 µM (inactive) and the GI50 (UACC-62) was 17.3 µM (inactive). The GI50 (HT-29) was 31.4 µM (inactive), the GI50 (COLO 205) was 16.3 µM (inactive) and the GI50 (SN12C) was 25.4 µM (inactive). The GI50 (HL-60) was 25.3 µM (inactive), the GI50 (OVCAR-4) was 14 µM (inactive) and the GI50 (ACHN) was 16.6 µM (inactive). For the same molecule, the GI50 (DU-145) was 19.9 µM (inactive), the GI50 (SW-620) was 30.2 µM (inactive) and the GI50 (MDA-N) was 18.6 µM (inactive). The GI50 (HCT-116) was 11.4 µM (inactive), the GI50 (MDA-MB-435) was 18.7 µM (inactive) and the GI50 (M14) was 17.3 µM (inactive). For the same molecule, the GI50 (SF-295) was 86.1 µM (inactive), the GI50 (HCC 2998) was 28.9 µM (inactive) and the GI50 (EKVX) was 30.9 µM (inactive). For the same molecule, the GI50 (Malme-3M) was 14.7 µM (inactive), the GI50 (SK-MEL-5) was 14.7 µM (inactive) and the GI50 (MDA-MB-231) was 23.6 µM (inactive). For the same molecule, the GI50 (MOLT-4) was 22.9 µM (inactive), the GI50 (SK-OV-3) was 52.2 µM (inactive) and the GI50 (Hs-578T) was 44.8 µM (inactive). The GI50 (SF-539) was 22.9 µM (inactive), the GI50 (SR) was 15.6 µM (inactive) and the GI50 (T47D) was 16.5 µM (inactive). For the same molecule, the GI50 (MCF7) was 13.1 µM (inactive), the GI50 (OVCAR-5) was 47.3 µM (inactive) and the GI50 (KM12) was 42.8 µM (inactive). For the same molecule, the GI50 (LOX IMVI) was 24.9 µM (inactive), the GI50 (SNB-19) was 48.1 µM (inactive) and the GI50 (NCI-H226) was 21.4 µM (inactive). The GI50 (NCI/ADR-RES) was 30.2 µM (inactive), the GI50 (TK-10) was 45.1 µM (inactive) and the GI50 (BT-549) was 6.58 µM (inactive). The GI50 (SK-MEL-2) was 16.9 µM (inactive), the GI50 (HOP-62) was 26.9 µM (inactive) and the GI50 (HCT-15) was 16.5 µM. The GI50 (UACC-257) was 17.5 µM (inactive), the GI50 (NCI-H460) was 21.5 µM (inactive) and the GI50 (PC-3) was 14 µM (inactive). For the same molecule, the GI50 (SK-MEL-28) was 17.3 µM (inactive), the GI50 (CCRF-CEM) was 0.771 µM (active) and the GI50 (U-251) was 28.5 µM (inactive). The GI50 (A549) was 26.8 µM (inactive), the GI50 (K562) was 16.9 µM (inactive) and the GI50 (HOP-92) was 13.6 µM (inactive). The GI50 (OVCAR-8) was 16.5 µM (inactive).
